Experimental data from patent US20050181457A1, “FcyrIII signaling inhibitor assay” (priority 2002, published 2005).

Test system: FcγRIII signaling
Assay: FcγRIII signaling inhibitor assay: IgG2a-complex stimulated DC18 C10 cells, hTNFα promoter-luciferase reporter
Type: cell-based, mouse
Conditions: DC18 C10 cells stimulated with IgG2a complexes; inhibitor at its described IC50 concentration; FIG. 3
Method: Cells are transfected by electroporation at optimised conditions (200V, 960 pF) with a TNFα promoter—luciferase—TNFα 3′ end construct and plated in 10 ml of medium immediately after electroporation and purified by Lymphoprep the next day. 1×10^4 viable cells per well are plated in 96 well microtiter plates in 100 μl of medium each plus 250 μg/ml of geneticin (G418). Two days later 100 μl of fresh medium are added. Every second day 100 μl of medium are removed and substituted by 100 μl of fresh medium. Stable clones are selected by conventional cell culture methods and single cell cloning. […] The best responder is subjected to one round of further limited dilution cloning (single cell cloning) and named DC18 clone10 (=DC18 C10). This clone is selected for all further studies.
1×10^4 cells are seeded in 50 μl medium per well (Optiplate, Packard). Incubation with candidate compounds is done for 45 minutes prior to stimulation with 5 μg/ml of murine IgG of different subtypes complexed either with 10 μg/ml of DNP-BSA or 30 μg/ml of rabbit anti mouse Ig F(ab′)2 fragments. Stimulation is carried on for further 4 hours. Subsequently 13 μl of a 5 times concentrated reporter lysis buffer (Promega) are added and cells are lysed by freeze-(−80°) thaw cycle. For the readout 50 μl of luciferase substrate (Promega) are added and luciferase activity is measured in a MicroBetaJet (Wallac). […]

O=c1cc(-c2ccc(O)cc2)oc2cc(O)cc(O)c12 [Apigenin]
inhibition of IgG2a complexes-provoked luciferase induction (readout): inhibits IgG2a complexes-provoked luciferase induction
